From patent US7649013B2, “Methods of protecting against radiation injury” (priority 2003, dated 2010)
“Also recorded” adds a separate entry of the source.

Key:
[1] = system: BRCA1 in human colon cancer cells (SW480); experiment: Relative expression of cell cycle checkpoint genes, Human Cell-cycle Checkpoint GEArray Kit; assay type: cell-based; details: SW480, 2 μM, 4 hours, vs carrier alone
Protocol: Exponentially growing human colon cancer cells (SW480) are treated with β-lapachone at 2 μM, or carrier alone control, for 4 hours. Total RNA is prepared by Trizol reagents. Relative expression levels of multiple genes involved in cell cycle checkpoint are determined with the Human Cell-cycle Checkpoint GEArray Kit (SuperArray Inc. Bethesda, Md.) (FIG. 3). The up-regulation of the E2F1 target BRCA1 in β-lapachone treated cancer cells is another indication of E2F1 activation. BRCA1 is a tumor suppressor involved in many roles within the cell including DNA repair.

[2] = system: Chk2 in human cervical cancer cells (HeLa); experiment: Chk2 phosphorylation by immunoblotting of whole cell lysates; assay type: cell-based; details: 4 μM
Protocol: Human cervical cancer cells (HeLa) are treated with 4 μM β-lapachone for 0, 3, 10, 30, 60 and 120 minutes. Whole cell lysates are prepared, separated by SDS-PAGE, and analyzed by immunoblotting with anti-Chk2 and anti-phosphorylated-Chk2 antibodies.

[3] = system: C57BL/6J inbred strain female mice; experiment: Survival after 8 Gy whole body γ-irradiation, intraperitoneal 40 mg/kg at varying time points (Example 5); assay type: in vivo; details: for No. of animals surviving at 68 days post-irradiation: 8 animals; for Death rate (%): 68 days
Protocol: β-lapachone is prepared at 10 mg/ml in 40% hydroxypropyl-beta-cyclodextrin (HPBCD).
C57BL/6J inbred strain female mice (4-5 weeks old) are used. Animals are maintained in a climate-controlled animal facility.
The animals are injected intraperitoneally with β-lapachone (40 mg/kg body weight) either 0.5 hour, 1 hour, or 4 hours before irradiation, or 10 minutes or 1 hour after irradiation.
Whole body irradiation of animals with 8 Gy of γ-rays is carried out in air at room temperature in a gamma chamber (Gammacell 40 Exactor) with a dose-rate of 1.05 Gy/min. This radiation dose is within the range of equivalent human exposures predicted in many scenarios of radiologic or nuclear terrorist attack.
Mice are divided in following groups (each Group comprises eight mice receiving identical treatment):
Group III: Mice are injected with β-lapachone 40 mg/kg body weight 4 hours before radiation.
Group IV: Mice are injected with β-lapachone 40 mg/kg body weight 1 hour before radiation.
Group V: Mice are injected with β-lapachone 40 mg/kg body weight 0.5 hours before radiation.
Group VI: Mice are injected with β-lapachone 40 mg/kg body weight 10 minutes after radiation.
Group VII: Mice are injected with β-lapachone 40 mg/kg body weight 1 hour after radiation.
Animals are irradiated with 8 Gy at 1.05 Gy/min dose-rate. After irradiation mice are returned to their cage and observed on a regular basis. Exposure to γ-rays causes lethality in animals. Importantly, treatment with β-lapachone, especially at a level of 40 mg/kg either 4, 1, or 0.5 hours prior to irradiation, diminishes the death rate.

[4] = system: C57BL/6J inbred strain female mice; experiment: Thymic cellularity after whole body irradiation, hematoxylin-eosin sections (Example 7a); assay type: in vivo; details: 40 mg/kg i.p. 0.5 hour before 8 Gy; day five
Protocol: β-lapachone is prepared at 10 mg/ml in 40% hydroxypropyl-beta-cyclodextrin (HPBCD). C57BL/6J inbred strain female mice (4-5 weeks old) are organized into three groups of six mice each: Group I mice receive no radiation, no β-lapachone, and no carrier; Group II mice receive radiation and are injected with carrier (40% HPBCD 4 ml/kg body weight); and Group III mice are injected intraperitoneally at 0.5 hour before irradiation with β-lapachone (40 mg/kg body weight). Whole body irradiation of animals with 8 Gy of γ-rays is carried out in air at room temperature in a gamma chamber (Gammacell 40 Exactor), with a dose-rate of 1.05 Gy/min. This radiation dose is within the range of equivalent human exposures predicted in many scenarios of radiologic or nuclear terrorist attack. Following irradiation, animals are maintained in a climate-controlled animal facility. Three mice in each of Groups I, II, and III are sacrificed on day five following irradiation, and an analysis of thymic cellularity is performed for each. The remaining mice are sacrificed on day eight following irradiation, and an analysis of thymic cellularity is performed for each. Thymic cellularity is qualitatively assessed in sections stained with hematoxylin-eosin following standard procedures.

[5] = system: C57BL/6J inbred strain female mice; experiment: Quantitative spleen cellularity after whole body irradiation, trypan blue exclusion count (Example 7b); assay type: in vivo; details: 40 mg/kg i.p. 0.5 hour before 8 Gy; day five and eight; P=0.00035
Protocol: Spleen cellularity is quantitatively assessed following whole body gamma irradiation in mice, with and without pretreatment with β-lapachone, as follows. β-lapachone is prepared at 10 mg/ml in 40% hydroxypropyl-beta-cyclodextrin (HPBCD). C57BL/6J inbred strain female mice (4-5 weeks old) are organized into three groups of six mice each: Group I mice receive no radiation, no β-lapachone, and no carrier; Group II mice receive radiation and are injected with carrier (40% HPBCD 4 ml/kg body weight); and Group III mice are injected intraperitoneally at 0.5 hour before irradiation with β-lapachone (40 mg/kg body weight). […] Three mice in each of Groups I, II, and III are sacrificed on day five following irradiation, and a quantitative analysis of splenic cellularity is performed for each. The remaining mice are sacrificed on day eight following irradiation, and a quantitative analysis of splenic cellularity is performed for each.
For quantitative analysis for splenic cellularity, spleens are processed into single cell suspensions and erythrocytes are lysed in 2 ml lysis buffer (0.01 M KHCO3, 0.154 M NH4Cl, 0.01 mM EDTA). The remaining leukocytes are washed, suspended and counted in a hemacytometer using the trypan blue exclusion method.

rats = details: p.o. daily for one month; cited from earlier work
dogs = details: p.o. daily for one month; cited from earlier work
[6] = 40 mg/kg i.p. 10 min after Radiation 8 Gy
[7] = 40 mg/kg i.p. 0.5 hr before Radiation 8 Gy
[8] = 40 mg/kg i.p. 1 hr after Radiation 8 Gy
[9] = 40 mg/kg i.p. 1 hr before Radiation 8 Gy
[10] = 40 mg/kg i.p. 4 hr before Radiation 8 Gy

Structure (SMILES): CC1(C)CCC2=C(O1)c1ccccc1C(=O)C2=O [β-lapachone, 3,4-dihydro-2,2-dimethyl-2H-naphtho[1,2-b]pyran-5,6-dione]
- BRCA1 relative expression level [1]: induces increased expression; also recorded: up-regulation
- Time at which phosphorylated Chk2 levels appear [2]: 10 min
- Phosphorylated Chk2 (p-Chk2) level / proportion of phosphorylated Chk2 ([2]; 0-120 minutes): induces an increase in the proportion of phosphorylated Chk2; also recorded: sustained increase
- Total amount of Chk2 within the cells ([2]; 0-120 minutes): remains unchanged
- Median survival time [3, 6]: 14 days
- No. of animals surviving at 68 days post-irradiation [3, 6]: 0
- Death rate (%) [3, 6]: 100%
- Median survival time ([3]; 40 mg/kg i.p. 0.5 hr before Radiation 8 Gy (no death)): >68 days
- No. of animals surviving at 68 days post-irradiation [3, 7]: 8
- Death rate (%) [3, 7]: 0%
- Median survival time [3, 8]: 16 days
- No. of animals surviving at 68 days post-irradiation [3, 8]: 0
- Death rate (%) [3, 8]: 100%
- Median survival time [3, 9]: 68 days
- No. of animals surviving at 68 days post-irradiation [3, 9]: 4
- Death rate (%) [3, 9]: 50%
- Median survival time [3, 10]: 21 days
- No. of animals surviving at 68 days post-irradiation [3, 10]: 2
- Death rate (%) [3, 10]: 75%
- Temporal survival pattern (FIG. 6) ([3]; 40 mg/kg i.p. at 0.5, 1.0 or four hours prior to 8 Gy, vs control decline at 16-20 days): delayed this early decline in survival
- Thymic cellularity in thymic sections (FIG. 8) [4]: preserves thymic cellularity
- Splenic cellularity, quantitative (FIG. 9) [5]: significantly preserved cellularity
- Maximum tolerated dose (rats): 200 mg/kg
- Maximum tolerated dose (dogs): 100 mg/kg
